Assay results as given in EP2042188A1, “PHARMACEUTICAL COMPOSITION FOR TREATING OR PREVENTING HCV INFECTION” (priority 2006, dated 2007).
Like-named read-outs stand apart in the source and are kept apart here.

Assays:
[1] = system: HCV genotype 1b (HCR6); assay: Serum HCV RNA (real-time PCR) in chimeric mice with humanized liver infected with HCV genotype 1b, myriocin and/or PEG-IFN; assay type: in vivo, chimeric mice having humanized liver; conditions: after eight days, myriocin 1 mg/kg (reduced to 0.5 mg/kg on weight loss)
Procedure: The inhibitory activity of myriocin was examined using chimeric mice having humanized liver infected with HCR6 (genotype 1b). The chimeric mice used were purchased from PhoenixBio Co. (Hiroshima, Japan).
Specifically, according to Table 2, myriocin and/or PEG-IFN (Chugai, Tokyo, Japan) were administered intraperitoneally or subcutaneously into mice infected with HCV genotype 1b (HCR6; accession number AY045702) and blood was collected. Table 2: Administration schedule for chimeric mice infected with HCV genotype 1b
In Table 2, the symbols B, I, and M indicate that each step was conducted as needed and the administration of agents was started on day 0. PEG-IFN was injected at a dose of 30 µg/kg. The dose of myriocin injection was varied depending on the mouse weight. The administration was started at 1 mg/kg (M). When the weight was reduced by 10%, the dose was reduced to 0.5 mg/kg (M1/2). The administration was discontinued when the weight was reduced by 20%.
Next, total RNAs were purified using AGPC method from 1 µl of sera or hepatic tissues collected from the chimeric mice. HCV RNA was quantified by real-time PCR using a method known to those skilled in the art (Takeuchi, T. et al., Gastroenterology, 116, 636-642 (1999)).

[2] = system: de novo sphingolipid biosynthesis in FLR3-1 cells; assay: De novo sphingolipid biosynthesis monitored by [14C]-serine incorporation and TLC; assay type: cell-based; conditions: TLC
Procedure: To investigate the correlation between sphingolipid metabolites and HCV replication, the present inventors monitored the de novo sphingolipid biosynthesis in FLR3-1 cells in the presence of myriocin.
First, FLR3-1 cells were incubated with [^14C]-serine (0.5 µCi/ml) in Opti-MEM (Invitrogen) for two hours. After the cells were lysed in 0.1% SDS, total lipid was extracted using chloroform/methanol (1:2 (v/v)). The extract was spotted onto a Silica gel 60 thin layer chromatography (TLC) plate (Merck, Darmstadt, Germany), and chromatographed using methyl acetate/ 1-propanol/ chloroform/methanol/ 0.25% KCl (25:25:25:10:9 (v/v)). Radioactive spots were detected using BAS 2000 (Fujifilm, Kanagawa, Japan).

[3] = system: NS3 protein; assay: Immunoblotting and immunofluorescent staining of NS3 protein in HCV replicon cells; assay type: cell-based
[4] = system: FLR3-1 HCV subgenomic replicon cells (genotype 1b; Con-1); assay: Luciferase assay of HCV replication in HCV subgenomic replicon cells; assay type: cell-based; conditions: Hepatitis C virus; for IC50: 72 h, FLR3-1 cells, read-out: IC50 of myriocin
Procedure: First, myriocin (Sigma, St. Louis, MO, USA) was added at a final concentration of 0.2, 1.0, 3.9, 15.6, or 62.5 nM to a growth medium for FLR3-1 HCV subgenomic replicon cells (genotype 1b; Con-1; Sakamoto, H. et al., Nat Chem Biol, 1, 333-337 (2005)). After 72 hours of incubation, the present inventors carried out luciferase assay using the Bright-Glo luciferase assay kit (Promega, Madison, WI, USA).
FLR3-1 cells were incubated with 1 or 2.5 µM of a sphingolipid intermediate (dihydrosphingosine, sphingosine, or sphingosine-1-phosphate), and then serial dilutions of myriocin were added thereto. After 72 hours, IC50 in each combination was determined by luciferase assay.

[5] = system: FLR3-1 cells; assay: Cell viability (Tetra Color One kit); assay type: cell-based; conditions: 72 hours of incubation, 0.2 to 62.5 nM
Procedure: Furthermore, myriocin was added to FLR3-1 cells, and after 72 hours of incubation, the cell viability was determined using Tetra Color One kit (Seikagakukogyo, Tokyo, Japan) according to the manufacturer's instructions.

[6] = Serum human albumin level (Alb-II kit) in HCV 1b infected chimeric mice; assay type: in vivo, chimeric mice having humanized liver; conditions: serum of HCV 1b infected chimeric mice
Procedure: The present inventors monitored the human albumin (h-Alb) level at the same time. The human albumin level was determined using 2 µl of serum and the Alb-II kit (Eiken Chemical, Tokyo, Japan) according to the manufacturer's instructions.

[7] = system: HCV genotype, 1a (HCG9); assay: HCV RNA and core protein in serum and liver of chimeric mice infected with HCV genotype 1a; assay type: in vivo; conditions: 2 mg/kg of myriocin every day for six days
Procedure: The serum RNA level in these mice reached about 1x10^8 copies/ml, 10 times higher than that of HCV 1b (HCR6) (Fig. 5A). Therefore, it was assumed that the HCV core protein in the hepatocytes could be readily detected by immunofluorescent staining. The present inventors administered 2 mg/kg of myriocin to 1a-4 chimeric mice every day for six days and then excised the livers. For comparison, livers were also excised from non-treated mice (1a-1), non-infected mice (1a-2), and PEG-IFN-treated mice (1a-3) in the same way. The livers were homogenized in RIPA, and 100 µg of the total protein was used for detection of the core protein using the Ortho HCV core protein ELISA kit (Eiken Chemical).
Next, the liver tissues of the chimeric mice were examined by immunofluorescent staining. Liver sections from the 1a-1 and 1a-4 mice were probed using a biotinylated anti-HCV core protein monoclonal antibody and anti-human hepatocyte monoclonal antibody (Dako, Glostrup, Denmark) as primary antibodies. Then, the sections were probed with streptavidin-Alexa 488 (Invitrogen) and anti-mouse IgG-Alexa-546 (Invitrogen). Furthermore, nuclei were stained with DAPI.
The effect of myriocin treatment on the expression of HCV RNA and core protein in the livers of the chimeric mice was confirmed by the method described above.

With `CCCCCCC(=O)CCCCCC/C=C/C[C@@H](O)[C@H](O)[C@@](N)(CO)C(=O)O` [myriocin, Myriocin] the “reduction of serum level of HCV RNA” value [1] was 10 to 100 times, the “serum level of HCV RNA” value ([1]; before treatment 3 x 10^6 to 1 x 10^7 copies/ml) was 6 x 10^5 to 1 x 10^4 copies/ml and the “production of both ceramide and sphingomyelin” value [2] was “inhibited in a dose dependent manner”. The “production of phosphatidylethanolamine and phosphatidylserine” value [2] was “not affected”, the NS3 protein [3] was “reduced” and the IC50 ([4]; Agent added: Dihydrosphingosine 1.0 µM) was 77.7 nM. The IC50 ([4]; Agent added: Dihydrosphingosine 2.5 µM) was greater than 1000 nM, the IC50 ([4]; Agent added: Sphingosine 1.0 µM) was 22.4 nM and the IC50 ([4]; Agent added: Sphingosine 2.5 µM) was greater than 1000 nM. It also gave an IC50 ([4]; Agent added: Sphingosine-1-phosphate 1.0 µM) of 14.7 nM, an IC50 ([4]; Agent added: Sphingosine-1-phosphate 2.5 µM) greater than 1000 nM and an IC50 ([4]; No agent added, luciferase assay) of roughly 5.8 nM. The inhibition at 0.0625 µM ([4]; in the presence of 62.5 nM myriocin, 72 hours, read-out: maximum inhibitory rate (luciferase activity)) was roughly 80%, the cell viability [5] was “without affecting the cell viability” and the human albumin level [6] was “without affecting h-Alb”. For the same compound, the “HCV 1a RNA and core protein in the liver” value ([7]; 1a-4 mice) was “also reduced”, the “serum level of HCV RNA” value ([7]; 1a-4 mice, non-treated about 1x10^8 copies/ml) was 1 x 10^5 copies/ml and the “core protein in human hepatocytes (immunofluorescent staining)” value ([7]; liver sections of 1a-4 mice) was “disappeared”.
